Like-named read-outs stand apart in the source and are kept apart here.
Legend:
[1] = system: mRNA expressed from the genes (A) to (D) in rat liver; assay: Behavior of genes (mRNA expression level, oligo-DNA microarray) in rat liver after 28-day oral administration; assay type: in vivo
In short: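 Male F344 SPF rats, 5 weeks old, four per group, dosed by oral gavage once daily for 28 days with test chemical or matched-volume solvent. Liver total RNA profiled on oligo-DNA microarray. Change ≥1.5-fold or ≤1/1.5 versus vehicle counted as significant if its direction matched that seen with other carcinogens.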

liver = conditions: cited from earlier work
rodent = conditions: cited from earlier work
[2] = cited from earlier work
[3] = gene group (A), Unigene No. Rn.167075
[4] = gene group (C), Unigene No. Rn.120914
[5] = classification of the substance (M+/M−)

Cl.Cl.Nc1ccc(N)cc1 [TS059, p-Phenylenediamine 2HCl]
Cr−: Liver carcinogenicity (liver; classification of the substance (Cr+/Cr−))
−: Behavior of gene caused by administration of chemical substance, Gene No. 4846 ([1]; gene group (A), Unigene No. Rn.144554) | Behavior of gene caused by administration of chemical substance, Gene No. 2026 [1, 3] | Behavior of gene caused by administration of chemical substance, Gene No. 4218 [1, 3] | Behavior of gene caused by administration of chemical substance, Gene No. 6182 ([1]; gene group (A), Unigene No. Rn.5834) | Behavior of gene caused by administration of chemical substance, Gene No. 5600 ([1]; gene group (A), Unigene No. Rn.9836) | Behavior of gene caused by administration of chemical substance, Gene No. 1494 ([1]; gene group (B), Unigene No. Rn.1430) | Behavior of gene caused by administration of chemical substance, Gene No. 2045 ([1]; gene group (B), Unigene No. Rn.19329) | Behavior of gene caused by administration of chemical substance, Gene No. 2203 ([1]; gene group (B), Unigene No. Rn.21240) | Behavior of gene caused by administration of chemical substance, Gene No. 533 ([1]; gene group (C), Unigene No. Rn.106184) | Behavior of gene caused by administration of chemical substance, Gene No. 725 ([1]; gene group (C), Unigene No. Rn.108075) | Behavior of gene caused by administration of chemical substance, Gene No. 1163 ([1]; gene group (C), Unigene No. Rn.11766) | Behavior of gene caused by administration of chemical substance, Gene No. 6303 ([1]; gene group (C), Unigene No. Rn.123063) | Behavior of gene caused by administration of chemical substance, Gene No. 5878 ([1]; gene group (C), Unigene No. Rn.143213) | Behavior of gene caused by administration of chemical substance, Gene No. 1131 ([1]; gene group (C), Unigene No. Rn.144946) | Behavior of gene caused by administration of chemical substance, Gene No. 6026 ([1]; gene group (C), Unigene No. Rn.167685) | Behavior of gene caused by administration of chemical substance, Gene No. 813 ([1]; gene group (C), Unigene No. Rn.201760) | Behavior of gene caused by administration of chemical substance, Gene No. 2494 ([1]; gene group (C), Unigene No. Rn.23969) | Behavior of gene caused by administration of chemical substance, Gene No. 6742 ([1]; gene group (C), Unigene No. Rn.9779)
M+: Mutagenicity by Ames test [2, 5]
C−: Carcinogenicity (rodent; classification of the substance (C+/C−))
+: Behavior of gene caused by administration of chemical substance, Gene No. 4973 ([1]; gene group (C), Unigene No. Rn.118529) | Behavior of gene caused by administration of chemical substance, Gene No. 4095 ([1]; gene group (C), Unigene No. Rn.119024) | Behavior of gene caused by administration of chemical substance, Gene No. 1334 [1, 4] | Behavior of gene caused by administration of chemical substance, Gene No. 6620 [1, 4] | Behavior of gene caused by administration of chemical substance, Gene No. 1562 ([1]; gene group (C), Unigene No. Rn.14744) | Behavior of gene caused by administration of chemical substance, Gene No. 1741 ([1]; gene group (C), Unigene No. Rn.1647) | Behavior of gene caused by administration of chemical substance, Gene No. 893 ([1]; gene group (C), Unigene No. Rn.164817) | Behavior of gene caused by administration of chemical substance, Gene No. 154 ([1]; gene group (C), Unigene No. Rn.185941) | Behavior of gene caused by administration of chemical substance, Gene No. 1993 ([1]; gene group (C), Unigene No. Rn.18728) | Behavior of gene caused by administration of chemical substance, Gene No. 2546 ([1]; gene group (C), Unigene No. Rn.24561) | Behavior of gene caused by administration of chemical substance, Gene No. 3776 ([1]; gene group (C), Unigene No. Rn.43232) | Behavior of gene caused by administration of chemical substance, Gene No. 3929 ([1]; gene group (C), Unigene No. Rn.4620) | Behavior of gene caused by administration of chemical substance, Gene No. 1119 ([1]; gene group (C), Unigene No. Rn.9757) | Behavior of gene caused by administration of chemical substance, Gene No. 5634 ([1]; gene group (C), Unigene No. Rn.9862) | Behavior of gene caused by administration of chemical substance, Gene No. 5726 ([1]; gene group (D), Unigene No. Rn.9939)

CC(=O)Nc1cccc2c1-c1ccccc1C2 [TS061, 4-Acetylaminofluorene]
+: Behavior of gene caused by administration of chemical substance ([1]; Gene No. 1163, Rn.11766, group (C)) | Behavior of gene caused by administration of chemical substance ([1]; Gene No. 2026, Rn.167075, group (A)) | Behavior of gene caused by administration of chemical substance ([1]; Gene No. 4846, Rn.144554, group (A)) | Behavior of gene caused by administration of chemical substance ([1]; Gene No. 6182, Rn.5834, group (A))
Cr−: Liver carcinogenicity (liver; classification Cr+/Cr−)
M+: Mutagenicity by Ames test ([2]; classification M+/M−)
C−: Carcinogenicity (rodent; classification C+/C−)
−: Behavior of gene caused by administration of chemical substance ([1]; Gene No. 154, Rn.185941, group (C)) | Behavior of gene caused by administration of chemical substance ([1]; Gene No. 533, Rn.106184, group (C)) | Behavior of gene caused by administration of chemical substance ([1]; Gene No. 725, Rn.108075, group (C)) | Behavior of gene caused by administration of chemical substance ([1]; Gene No. 813, Rn.201760, group (C)) | Behavior of gene caused by administration of chemical substance ([1]; Gene No. 893, Rn.164817, group (C)) | Behavior of gene caused by administration of chemical substance ([1]; Gene No. 1119, Rn.9757, group (C)) | Behavior of gene caused by administration of chemical substance ([1]; Gene No. 1131, Rn.144946, group (C)) | Behavior of gene caused by administration of chemical substance ([1]; Gene No. 1334, Rn.120914, group (C)) | Behavior of gene caused by administration of chemical substance ([1]; Gene No. 1494, Rn.1430, group (B)) | Behavior of gene caused by administration of chemical substance ([1]; Gene No. 1562, Rn.14744, group (C)) | Behavior of gene caused by administration of chemical substance ([1]; Gene No. 1741, Rn.1647, group (C)) | Behavior of gene caused by administration of chemical substance ([1]; Gene No. 1993, Rn.18728, group (C)) | Behavior of gene caused by administration of chemical substance ([1]; Gene No. 2045, Rn.19329, group (B)) | Behavior of gene caused by administration of chemical substance ([1]; Gene No. 2203, Rn.21240, group (B)) | Behavior of gene caused by administration of chemical substance ([1]; Gene No. 2494, Rn.23969, group (C)) | Behavior of gene caused by administration of chemical substance ([1]; Gene No. 2546, Rn.24561, group (C)) | Behavior of gene caused by administration of chemical substance ([1]; Gene No. 3776, Rn.43232, group (C)) | Behavior of gene caused by administration of chemical substance ([1]; Gene No. 3929, Rn.4620, group (C)) | Behavior of gene caused by administration of chemical substance ([1]; Gene No. 4095, Rn.119024, group (C)) | Behavior of gene caused by administration of chemical substance ([1]; Gene No. 4218, Rn.167075, group (A)) | Behavior of gene caused by administration of chemical substance ([1]; Gene No. 4973, Rn.118529, group (C)) | Behavior of gene caused by administration of chemical substance ([1]; Gene No. 5600, Rn.9836, group (A)) | Behavior of gene caused by administration of chemical substance ([1]; Gene No. 5634, Rn.9862, group (C)) | Behavior of gene caused by administration of chemical substance ([1]; Gene No. 5726, Rn.9939, group (D)) | Behavior of gene caused by administration of chemical substance ([1]; Gene No. 5878, Rn.143213, group (C)) | Behavior of gene caused by administration of chemical substance ([1]; Gene No. 6026, Rn.167685, group (C)) | Behavior of gene caused by administration of chemical substance ([1]; Gene No. 6303, Rn.123063, group (C)) | Behavior of gene caused by administration of chemical substance ([1]; Gene No. 6620, Rn.120914, group (C)) | Behavior of gene caused by administration of chemical substance ([1]; Gene No. 6742, Rn.9779, group (C))

Cc1c(C)c2c(c(C)c1O)CC[C@@](C)(CCC[C@H](C)CCC[C@H](C)CCCC(C)C)O2 [TS062, α-Tocopherol (Vitamin E)]
Cr−: Liver carcinogenicity (liver; in vivo)
+: Behavior of gene caused by administration of chemical substance, Gene No. 1163 ([1]; rat, in vivo) | Behavior of gene caused by administration of chemical substance, Gene No. 6742 ([1]; rat, in vivo)
M−: Mutagenicity by Ames test [2, 5]
−: Behavior of gene caused by administration of chemical substance, Gene No. 154 ([1]; rat, in vivo) | Behavior of gene caused by administration of chemical substance, Gene No. 533 ([1]; rat, in vivo) | Behavior of gene caused by administration of chemical substance, Gene No. 725 ([1]; rat, in vivo) | Behavior of gene caused by administration of chemical substance, Gene No. 813 ([1]; rat, in vivo) | Behavior of gene caused by administration of chemical substance, Gene No. 893 ([1]; rat, in vivo) | Behavior of gene caused by administration of chemical substance, Gene No. 1119 ([1]; rat, in vivo) | Behavior of gene caused by administration of chemical substance, Gene No. 1131 ([1]; rat, in vivo) | Behavior of gene caused by administration of chemical substance, Gene No. 1334 ([1]; rat, in vivo) | Behavior of gene caused by administration of chemical substance, Gene No. 1494 ([1]; rat, in vivo) | Behavior of gene caused by administration of chemical substance, Gene No. 1562 ([1]; rat, in vivo) | Behavior of gene caused by administration of chemical substance, Gene No. 1741 ([1]; rat, in vivo) | Behavior of gene caused by administration of chemical substance, Gene No. 1993 ([1]; rat, in vivo) | Behavior of gene caused by administration of chemical substance, Gene No. 2026 ([1]; rat, in vivo) | Behavior of gene caused by administration of chemical substance, Gene No. 2045 ([1]; rat, in vivo) | Behavior of gene caused by administration of chemical substance, Gene No. 2203 ([1]; rat, in vivo) | Behavior of gene caused by administration of chemical substance, Gene No. 2494 ([1]; rat, in vivo) | Behavior of gene caused by administration of chemical substance, Gene No. 2546 ([1]; rat, in vivo) | Behavior of gene caused by administration of chemical substance, Gene No. 3776 ([1]; rat, in vivo) | Behavior of gene caused by administration of chemical substance, Gene No. 3929 ([1]; rat, in vivo) | Behavior of gene caused by administration of chemical substance, Gene No. 4095 ([1]; rat, in vivo) | Behavior of gene caused by administration of chemical substance, Gene No. 4218 ([1]; rat, in vivo) | Behavior of gene caused by administration of chemical substance, Gene No. 4846 ([1]; rat, in vivo) | Behavior of gene caused by administration of chemical substance, Gene No. 4973 ([1]; rat, in vivo) | Behavior of gene caused by administration of chemical substance, Gene No. 5600 ([1]; rat, in vivo) | Behavior of gene caused by administration of chemical substance, Gene No. 5634 ([1]; rat, in vivo) | Behavior of gene caused by administration of chemical substance, Gene No. 5726 ([1]; rat, in vivo) | Behavior of gene caused by administration of chemical substance, Gene No. 5878 ([1]; rat, in vivo) | Behavior of gene caused by administration of chemical substance, Gene No. 6026 ([1]; rat, in vivo) | Behavior of gene caused by administration of chemical substance, Gene No. 6182 ([1]; rat, in vivo) | Behavior of gene caused by administration of chemical substance, Gene No. 6303 ([1]; rat, in vivo) | Behavior of gene caused by administration of chemical substance, Gene No. 6620 ([1]; rat, in vivo)
C−: Carcinogenicity (rodent; in vivo)
